Assay results from patent publication US20210087188A1, “5,6-DIHYDRO-1 1H-INDOLO{2,3-B}QUINOLIN- 11-ONE COMPOUNDS AS ALK INHIBITORS” (THE REGENTS OF THE UNIVERSITY OF MICHIGAN, priority 2018, published 2021).
Counter-ions that a name gives are not always drawn.

molecular target: T1, wild-type human ALK protein (cytoplasmic domain, amino acid 1058-1620, N-terminal GST-fusion) (Homo sapiens, UniProt Q9UM73); test: Enzymatic inhibition assay (time-resolved fluorescence, peptide substrate phosphorylation); assay type: biochemical; conditions: ATP 100 μM, 30 min pre-incubation, 90 min reaction, read-out: WT IC50
T1 construct: The cytoplasmic domain (amino acid 1058-1620) of wild-type human ALK protein; GST (N); purchased Carna Biosciences, Inc (Japan)
T1 sequence (Q9UM73 1058-1620): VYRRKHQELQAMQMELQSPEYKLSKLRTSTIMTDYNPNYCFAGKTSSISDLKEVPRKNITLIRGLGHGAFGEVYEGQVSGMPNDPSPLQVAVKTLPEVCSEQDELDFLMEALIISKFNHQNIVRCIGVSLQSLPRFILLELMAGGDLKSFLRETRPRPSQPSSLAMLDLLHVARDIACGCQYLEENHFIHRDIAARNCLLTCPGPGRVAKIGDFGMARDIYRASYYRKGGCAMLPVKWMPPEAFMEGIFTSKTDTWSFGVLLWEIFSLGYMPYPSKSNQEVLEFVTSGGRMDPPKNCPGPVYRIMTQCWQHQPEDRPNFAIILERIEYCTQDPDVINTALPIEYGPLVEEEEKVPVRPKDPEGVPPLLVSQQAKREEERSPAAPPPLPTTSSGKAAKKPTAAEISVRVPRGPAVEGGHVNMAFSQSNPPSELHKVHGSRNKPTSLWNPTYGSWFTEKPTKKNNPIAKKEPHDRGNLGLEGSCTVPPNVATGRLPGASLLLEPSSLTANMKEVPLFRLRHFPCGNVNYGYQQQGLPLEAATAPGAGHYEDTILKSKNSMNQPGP
Method: Enzymatic Inhibition Assay
The cytoplasmic domain (amino acid 1058-1620) of wild-type human ALK protein expressed as N-terminal GST-fusion protein was purchased from Carna Biosciences, Inc (Japan). Compound solution (2.5 μL) and 5 μL of protein solution were added into a black low volume 384 well microtiter plate which was incubated for 30 minutes with gentle shaking at room temperature, followed by adding 2.5 μL of fluorescently labeled peptide substrate and ATP mixture solution. The kinase reaction was performed in 50 mM HEPES (pH 7.5) with 1 mM EGTA, 1 mM MgCl2, and 2 mM DTT, 0.01% Tween-20 added immediately prior to the assay. Final concentrations of ATP, substrates, and DMSO were 100 μM, 20 nM, and 0.5%, respectively. The final ALK concentrations were […]. The reaction was allowed to proceed for 90 minutes in the dark with gentle shaking at rt after which 10 μL of 20 mM EDTA and 2 nM Eu-W1024 anti-phosphotyrosine antibody (PT66) mixture solution in the detection buffer from the manufacturer was added to terminate the reaction and detect the phosphorylation of the peptide substrate. The final mixture was incubated in the dark for 1 h before the plate was read on a Tecan Infinite M-1000 multi-mode plate reader (Tecan, Durham N.C.) with an excitation wavelength of 320 nm. Emission intensities were measured at both 620 and 665 nm with the intensity ratio between 665 and 620 nm corresponding to the peptide substrate phosphorylation. IC50 values of inhibitors were obtained by fitting the ratio of 665/620 nm vs inhibitor concentrations in a sigmoidal dose-response curve (variable slope) with a non-linear regression.

| Structure (SMILES) | IC50 [nM] |
| --- | --- |
| COc1c(N2CCN(C3COC3)CC2)cc2c(c1F)c(=O)c1c3ccc(C#N)cc3[nH]c1n2C(C)C [compound 6, 1-fluoro-5-isopropyl-2-methoxy-3-(4-(oxetan-3-yl)piperazin-1-yl)-11-oxo-6,11-dihydro-5H-indolo[2,3-b]quinoline-8-carbonitrile] | 5.4 |
| CC(C)Oc1c(N2CCC(N3CCOCC3)CC2)cc2c(c1F)c(=O)c1c3ccc(C#N)cc3[nH]c1n2C(C)C [Cpd. No. 1, 1-fluoro-2-isopropoxy-5-isopropyl-3-(4-morpholinopiperidin-1-yl)-11-oxo-6,11-dihydro-5H-indolo[2,3-b]quinoline-8-carbonitrile] | 2.4 |
| CC(C)Oc1c(N2C[C@@H](C)N(C)[C@@H](C)C2)cc2c(c1F)c(=O)c1c3ccc(C#N)cc3[nH]c1n2C(C)C [compound 3, 1-fluoro-2-isopropoxy-5-isopropyl-11-oxo-3-(cis-3,4,5-trimethylpiperazin-1-yl)-6,11-dihydro-5H-indolo[2,3-b]quinoline-8-carbonitrile] | 0.57 |
| COc1c(N2CCN(C3CCOCC3)CC2)cc2c(c1F)c(=O)c1c3ccc(C#N)cc3[nH]c1n2C(C)C [compound 7, 1-fluoro-5-isopropyl-2-methoxy-11-oxo-3-(4-(tetrahydro-2H-pyran-4-yl)piperazin-1-yl)-6,11-dihydro-5H-indolo[2,3-b]quinoline-8-carbontrile] | 1.4 |
| COCCOc1cc2c(=O)c3c4ccc(C#N)cc4[nH]c3n(C(C)C)c2c(F)c1N1CCN(C2CCOCC2)CC1 [compound 9, 4-fluoro-5-isopropyl-2-(2-methoxyethoxy)-11-oxo-3-(4-(tetrahydro-2H-pyran-4-yl)piperazin-1-yl)-6,11-dihydro-5H-indolo[2,3-b]quinoline-8-carbonitrile (TFA salt)] | 54.4 |
| COc1c(N2C[C@@H](C)N(C)[C@@H](C)C2)cc2c(c1F)c(=O)c1c3ccc(C#N)cc3[nH]c1n2C(C)C [compound 8, 1-fluoro-5-isopropyl-2-methoxy-11-oxo-3-(cis-3,4,5-trimethylpiperazin-1-yl)-6,11-dihydro-5H-indolo[2,3-b]quinoline-8-carbonitrile] | 0.52 |
| CC(C)Oc1cc2c(=O)c3c4ccc(C#N)cc4[nH]c3n(C(C)C)c2c(F)c1N1C[C@@H](C)N(C)[C@@H](C)C1 [compound 11, 4-fluoro-2-isopropoxy-5-isopropyl-11-oxo-(cis-3,4,5-trimethylpiperazin-1-yl)-6,11-dihydro-5H-indolo[2,3-b]quinoline-8-carbonitrile (TFA salt)] | 7.8 |
| COCCOc1cc2c(=O)c3c4ccc(C#N)cc4[nH]c3n(C(C)C)c2c(F)c1N1C[C@@H](C)N(C)[C@@H](C)C1 [compound 10, 4-f1uoro-5-isopropyl-2-(2-methoxyethoxy)-11-oxo-3-(cis-3,4,5-trimethylpiperazin-1-yl)-6,11-dihydro-5H-indolo[2,3-b]quinoline-8-carbonitrile (TFA salt)] | 16.9 |
| CC(C)Oc1c(N2CCN(C3COC3)CC2)cc2c(c1F)c(=O)c1c3ccc(C#N)cc3[nH]c1n2C(C)C [compound 5, 1-fluoro-2-isopropoxy-5-isopropyl-3-(4-(oxetan-3-yl)piperazin-1-yl)-11-oxo-6,11-dihydro-5H-indolo[2,3-b]quinoline-8-carbonitrile] | 4.3 |
| CC(C)Oc1c(N2CCN(C3CCOCC3)CC2)cc2c(c1F)c(=O)c1c3ccc(C#N)cc3[nH]c1n2C(C)C [compound 2, 1-fluoro-2-isopropoxy-5-isopropyl-11-oxo-3-(4-(tetrahydro-2H-pyran-4-yl)piperazin-1-yl)-6,11-dihydro-5H-indolo[2,3-b]quinoline-8-carbonitrile] | 1.5 |
| CC(C)Oc1c(N2CCN(C(C)C)CC2)cc2c(c1F)c(=O)c1c3ccc(C#N)cc3[nH]c1n2C(C)C [compound 4, 1-fluoro-2-isopropoxy-5-isopropyl-3-(4-isopropylpiperazin-1-yl)-11-oxo-6,11-dihydro-5H-indolo[2,3-b]quinoline-8-carbonitrile] | 0.83 |
